Measurements published in patent publication US5853731A, “Thromboxane A2 Receptor antagonism and antioxidant action of cinnamophilin and its derivatives, their pharmaceutical compositions and uses” (National Science Council, priority 1997, dated 1998).
Read-outs that look alike come from different tables or passages of the source.

Tests used:
[1] = system: thromboxane B2 formation; experiment: Thromboxane B2 formation caused by arachidonic acid (AA); type: cell-based; conditions: for Thromboxane B2: caused by AA
[2] = system: PGE2 formation; experiment: Prostaglandin E2 formation caused by arachidonic acid (AA); type: cell-based; conditions: for Prostaglandin E2: caused by AA
[3] = molecular target: T1, rat thoracic aorta (Rattus norvegicus, UniProt P34978); experiment: Rat aortic contraction caused by U-46619; type: cell-based, Wistar rat; conditions: for activity at 0.3 µM / activity at 1 µM / activity at 3 µM / activity at 10 µM: rat, read-out: Contraction (% of maximal contraction); for activity at 0.3 µM: cinnamophilin 0.3 μM; for activity at 1 µM: cinnamophilin 1 μM; for activity at 3 µM: cinnamophilin 3 μM; for activity at 10 µM: cinnamophilin 10 μM
T1 construct: The thoracic aorta was isolated and excess fat and connective tissue were removed; from tissue; host or cells: thoracic aorta rings of Wistar rats
T1 sequence (P34978 1-341): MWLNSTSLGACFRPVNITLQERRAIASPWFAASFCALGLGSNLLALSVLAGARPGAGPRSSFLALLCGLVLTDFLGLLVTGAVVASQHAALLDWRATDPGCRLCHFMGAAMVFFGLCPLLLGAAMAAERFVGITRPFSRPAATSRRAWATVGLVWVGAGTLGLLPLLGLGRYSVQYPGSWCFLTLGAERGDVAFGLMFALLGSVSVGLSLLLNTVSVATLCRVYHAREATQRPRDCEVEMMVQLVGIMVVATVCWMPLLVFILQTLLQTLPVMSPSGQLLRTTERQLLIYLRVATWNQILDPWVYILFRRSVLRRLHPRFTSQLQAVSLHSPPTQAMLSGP
Method: (§1) A. Rat Aortic Contraction
(§2) Wistar rats of either sex weighing 250 g to 300 g were killed by a blow to the head. The thoracic aorta was isolated and excess fat and connective tissue were removed. Vessels were cut into rings of about 5 mm in length and mounted in organ baths containing 5 ml Krebs solution of the following composition (mM): NaCl (118.4), KCl (4.7), CaCl (1.9), MgSO4 (1.2), KH2 PO4 (1.2), NaHCO3 (25.0) and glucose (11.7). The tissue bath solution was maintained at 37° C. and gassed with 95% O2 :5% CO2 mixture. Two stainless steel hooks were inserted into the aortic lumen, one was fixed while the other was connected to a transducer. Aortae were equilibrated in the medium for 90 min with three changes of Krebs solution and maintained under an optimal tension of 1 g before specific experimental protocols were initiated.
(§3) Contraction was recorded isometrically via a force-displacement transducer connected to a Grass polygraph. Aortae were allowed to preincubate for 15 minutes with cinnamophilin before generating the cumulative concentration-response curve with each agonist for 15-30 min at 3 min intervals. Results are expressed as a percentage of the maximal control response for each agonist.

[4] = system: rat thoracic aorta; experiment: Rat aortic contraction caused by norepinephrine and high potassium (KCl); type: cell-based, Wistar rat; conditions: for K+ contraction (%), Tonic: K+ (80 mM); for K+ contraction (%), Tonic / norepinephrine contraction (%), Phrase (phasic) / norepinephrine contraction (%), Tonic: 15 min; for norepinephrine contraction (%), Phrase (phasic) / norepinephrine contraction (%), Tonic: norepinephrine 3 μM
Method: as §1, §2, §3
Rat aorta ring were preincubated with lignans or DMSO (0.1% control) at
37° C. for 15 min, then the inducer was added.

[5] = Antioxidation (absorbance at 500 nm, FeSCN method)
Source text: (Absorbance at 500 nm, using FeSCN method)

SMILES: COc1cc(CC(C)C(C)C(=O)c2ccc(O)c(OC)c2)ccc1O (centres unmarked) [Compound 1, cinnamophilin]
- TXA2 formation caused by AA ([1]; 0.03-10 μM): inhibit markedly the TXA2 formation
- Thromboxane B2 ([1]; conc 0.01 μM): 371 ± 35 ng/mL
- Thromboxane B2 ([1]; conc 0.03 μM): 278 ± 25 ng/mL
- Thromboxane B2 ([1]; conc 0.1 μM): 200 ± 41 ng/mL
- Thromboxane B2 ([1]; conc 0.3 μM): 128 ± 25 ng/mL
- Thromboxane B2 ([1]; conc 1 μM): 69 ± 25 ng/mL
- Thromboxane B2 ([1]; conc 3 μM): 28 ± 10 ng/mL
- Thromboxane B2 ([1]; conc 10 μM): 20 ± 5 ng/mL
- PGE2 level ([2]; 0.03-10 μM, AA): increase PGE2 and cAMP levels
- Prostaglandin E2 ([2]; conc 0.01 μM): 40 ± 10 ng/mL
- Prostaglandin E2 ([2]; conc 0.03 μM): 75 ± 15 ng/mL
- Prostaglandin E2 ([2]; conc 0.1 μM): 115 ± 15 ng/mL
- Prostaglandin E2 ([2]; conc 0.3 μM): 155 ± 29 ng/mL
- Prostaglandin E2 ([2]; conc 1 μM): 205 ± 19 ng/mL
- Prostaglandin E2 ([2]; conc 3 μM): 245 ± 20 ng/mL
- Prostaglandin E2 ([2]; conc 10 μM): 2665 ± 21 ng/mL
- Kb ([3]; against U-46619, 0.5% DMSO as control, read-out: pA2, rat aortic contraction induced by U-46619 (converted)): 50.1 nM
- activity at 0.3 µM ([3]; U-46619 0.005 μM): 0%
- activity at 0.3 µM ([3]; U-46619 0.01 μM): 8 ± 2%
- activity at 0.3 µM ([3]; U-46619 0.02 μM): 16 ± 4.9%
- activity at 0.3 µM ([3]; U-46619 0.05 μM): 35 ± 2%
- activity at 0.3 µM ([3]; U-46619 0.1 μM): 52 ± 3%
- activity at 0.3 µM ([3]; U-46619 0.2 μM): 65 ± 4%
- activity at 0.3 µM ([3]; U-46619 0.5 μM): 79 ± 2%
- activity at 0.3 µM ([3]; U-46619 1 μM): 85 ± 4%
- activity at 0.3 µM ([3]; U-46619 2 μM): 92 ± 4%
- activity at 1 µM ([3]; U-46619 0.02 μM): 3%
- activity at 1 µM ([3]; U-46619 0.05 μM): 11 ± 2%
- activity at 1 µM ([3]; U-46619 0.1 μM): 22 ± 3%
- activity at 1 µM ([3]; U-46619 0.2 μM): 35 ± 3.2%
- activity at 1 µM ([3]; U-46619 0.5 μM): 53 ± 3.1%
- activity at 1 µM ([3]; U-46619 1 μM): 55 ± 4%
- activity at 1 µM ([3]; U-46619 2 μM): 81 ± 4%
- activity at 1 µM ([3]; U-46619 5 μM): 88 ± 3%
- activity at 3 µM ([3]; U-46619 0.05 μM): 0%
- activity at 3 µM ([3]; U-46619 0.1 μM): 8 ± 3.7%
- activity at 3 µM ([3]; U-46619 0.2 μM): 15 ± 4.3%
- activity at 3 µM ([3]; U-46619 0.5 μM): 34 ± 5.6%
- activity at 3 µM ([3]; U-46619 1 μM): 50 ± 5.6%
- activity at 3 µM ([3]; U-46619 2 μM): 65 ± 5%
- activity at 3 µM ([3]; U-46619 5 μM): 81 ± 3%
- activity at 3 µM ([3]; U-46619 10 μM): 90 ± 3%
- activity at 10 µM ([3]; U-46619 0.2 μM): 6 ± 4.3%
- activity at 10 µM ([3]; U-46619 0.5 μM): 15 ± 3.9%
- activity at 10 µM ([3]; U-46619 1 μM): 31 ± 3.8%
- activity at 10 µM ([3]; U-46619 2 μM): 45 ± 3%
- activity at 10 µM ([3]; U-46619 5 μM): 65 ± 5%
- activity at 10 µM ([3]; U-46619 10 μM): 86 ± 4%
- K+ contraction (%), Tonic ([4]; conc 1 μM): 60.2 ± 1.5%
- K+ contraction (%), Tonic ([4]; conc 3 μM): 36.6 ± 4.7%
- K+ contraction (%), Tonic ([4]; conc 10 μM): 5.2 ± 2.3%
- K+ contraction (%), Tonic ([4]; conc 50 μM): 4.5 ± 3.2%
- phasic contractions ([4]; noradrenaline and high potassium (80 mM)): inhibited the phasic contractions
- norepinephrine contraction (%), Phrase (phasic) ([4]; conc 3 μM): 121.8 ± 7.2%
- norepinephrine contraction (%), Phrase (phasic) ([4]; conc 5 μM): 100.4 ± 9.7%
- norepinephrine contraction (%), Phrase (phasic) ([4]; conc 10 μM): 69.3 ± 4.0%
- norepinephrine contraction (%), Phrase (phasic) ([4]; conc 50 μM): 65.9 ± 11.3%
- norepinephrine contraction (%), Tonic ([4]; conc 3 μM): 90.1 ± 5.5%
- norepinephrine contraction (%), Tonic ([4]; conc 5 μM): 77.1 ± 5.7%
- norepinephrine contraction (%), Tonic ([4]; conc 10 μM): 27.9 ± 0.5%
- norepinephrine contraction (%), Tonic ([4]; conc 50 μM): 14.6 ± 1.5%
- antioxidation capability ([5]; 20 μM, compared with α-tocopherol at same concentration): lower than α-tocopherol at the same concentration
- Absorbance at 500 nm ([5]; 20 μM, induce time 0, control 0.047): 0.045
- Absorbance at 500 nm ([5]; 20 μM, induce time 4, control 0.084): 0.076
- Absorbance at 500 nm ([5]; 20 μM, induce time 7, control 0.201): 0.146
- Absorbance at 500 nm ([5]; 20 μM, induce time 10, control 0.343): 0.176
- Absorbance at 500 nm ([5]; 20 μM, induce time 16): 0.346
- Absorbance at 500 nm ([5]; 20 μM, induce time 19): 0.399
- Absorbance at 500 nm ([5]; 20 μM, induce time 22): 0.508
- Absorbance at 500 nm ([5]; 20 μM, induce time 25): 0.796
- Absorbance at 500 nm ([5]; 20 μM, induce time 28): 1.301
- inhibitory effect on fatty oil peroxidation ([5]; 40 μM): potential inhibitory effect on fatty oil peroxidation
- Absorbance at 500 nm ([5]; 40 μM, induce time 0, control 0.047): 0.037
- Absorbance at 500 nm ([5]; 40 μM, induce time 4, control 0.084): 0.056
- Absorbance at 500 nm ([5]; 40 μM, induce time 7, control 0.201): 0.082
- Absorbance at 500 nm ([5]; 40 μM, induce time 10, control 0.343): 0.116
- Absorbance at 500 nm ([5]; 40 μM, induce time 16): 0.156
- Absorbance at 500 nm ([5]; 40 μM, induce time 19): 0.204
- Absorbance at 500 nm ([5]; 40 μM, induce time 22): 0.256
- Absorbance at 500 nm ([5]; 40 μM, induce time 25): 0.282
- Absorbance at 500 nm ([5]; 40 μM, induce time 28): 0.349
- Absorbance at 500 nm ([5]; 40 μM, induce time 31): 0.405
- Absorbance at 500 nm ([5]; 40 μM, induce time 34): 0.453
- Absorbance at 500 nm ([5]; 40 μM, induce time 37): 0.525
- Absorbance at 500 nm ([5]; 40 μM, induce time 40): 0.687
- antioxidation capability versus control ([5]; compared with 0.5% DMSO as control): potential antioxidation capable comparing to 0.5% DMSO as control
